Activity calls are given as the source filed them. The rule behind the calls is not given here.
Columns and labels:
MDA-MB-468 [1] = assay: Antiproliferative activity against human MDA-MB-468 cells assessed as inhibition of cell viability at 5 uM preincubated with autophagy inhibitor, 3-methyladenine for 1 hr followed by compound addition and measured after 24 hrs by MTT assay; type: functional, cell-based
MDA-MB-231 [2] = assay: Induction of apoptosis in human MDA-MB-231 cells assessed as viable cells at 10 uM pretreated with autophagy inhibitor, 3-methyladenine for 1 hr followed by incubation with compound and measured after 24 hrs by Annexin V-FITC/propidium iodide staining based flow cytometry (reference value: 92.7%); type: functional; conditions: read-out: Activity
MDA-MB-231 [3] = assay: Induction of apoptosis in human MDA-MB-231 cells assessed as necrotic cells at 2.5 uM after 24 hrs by AnnexinV-FITC/PI staining based flow cytometry analysis (reference value: 0.083%); type: functional
MDA-MB-468 [4] = assay: Inhibition of colony formation in human MDA-MB-468 cells at 10 uM incubated for 14 days in presence of autophagy inhibitor, 3-methyladenine by crystal violet staining based analysis; type: functional, cell-based; conditions: time 14.0 day

C/C(=N\NC(=O)c1cccc(Br)c1)c1ccc(C(=O)Nc2nc3ccccc3[nH]2)cc1
Activity (MDA-MB-468 [1]): Active
viability at 10 µM (MDA-MB-231 [2]): 86.3%
Activity (MDA-MB-231 [3]): 0.076%
inhibition (MDA-MB-468 [4]): Active

— ChEMBL document CHEMBL4819087, “Identification and optimization of 3-bromo-N'-(4-hydroxybenzylidene)-4-methylbenzohydrazide derivatives as mTOR inhibitors that induce autophagic cell death and apoptosis in triple-negative breast cancer” (Eur J Med Chem, 2021)
